Reference: patent publication EP4603105A1, “PHARMACEUTICAL COMPOSITION CONTAINING CYCLIC COMPOUND HAVING SELECTIVE KRAS INHIBITORY EFFECT AGAINST HRAS AND NRAS” (CHUGAI SEIYAKU KABUSHIKI KAISHA, priority 2022, dated 2024)
Where two headings read alike, the source gives them in different places.

Legend:
[1] = molecular target: GDP-bound KRAS wild-type protein (Homo sapiens, UniProt P01116); assay: Binding to KRAS by surface plasmon resonance (SPR), dissociation constant KD
How it was run: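 GDP-bound biotin-Avi RAS captured at ~100–300 RU, 30°C, pH 7.4 HBS containing 10 µM GDP, 10 mM MgCl2, 1 mM DTT, 0.01% Tween 20 and 4% DMSO. KD by 1:1 fitting.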

[2] = molecular target: GDP-bound NRAS wild-type protein (Homo sapiens, UniProt P01111); assay: Binding to NRAS by surface plasmon resonance (SPR), KD and KD ratio to KRAS
How it was run: (§1)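 Captured GDP-RAS (~100–300 RU) was exposed to increasing compound concentrations, 75 s per step, in running buffer with 10 µM GDP, 10 mM MgCl2 and 4% DMSO at pH 7.4.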

HRAS wild-type protein = HRAS wild-type protein (Homo sapiens, UniProt P01112); assay: Binding to HRAS by surface plasmon resonance (SPR), KD and KD ratio to KRAS
How it was run: as §1

[3] = system: human lung cancer strain NCI-H441; assay: NCI-H441 cell proliferation inhibitory activity (CellTiter-Glo, 4 days); format: cell-based; conditions: read-out: NCl-H441 IC50
How it was run: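 Step one: dispense the test compound in serial DMSO dilutions. Step three: add the reagent and measure […].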

[4] = ratio of KD for GDP-bound NRAS wild-type protein to KD for KRAS
[5] = ratio of KD for HRAS wild-type protein to KD for KRAS
[6] = Single Cycle Kinetics, 1:1 binding model
[7] = ratio of KD with respect to GDP-bound NRAS wild-type protein to KD with respect to KRAS
[8] = ratio of KD with respect to HRAS wild-type protein to KD with respect to KRAS
[9] = 50% proliferation inhibitory concentration, four days

GDP-bound KRAS wild-type protein, sequence (P01116 1-188 isoform P01116-2): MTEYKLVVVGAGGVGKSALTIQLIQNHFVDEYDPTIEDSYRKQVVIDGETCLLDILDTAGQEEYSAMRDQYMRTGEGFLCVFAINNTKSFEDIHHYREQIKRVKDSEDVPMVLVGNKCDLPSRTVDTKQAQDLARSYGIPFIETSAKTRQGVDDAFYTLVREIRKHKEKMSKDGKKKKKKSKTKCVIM
HRAS wild-type protein, sequence (P01112 whole entry): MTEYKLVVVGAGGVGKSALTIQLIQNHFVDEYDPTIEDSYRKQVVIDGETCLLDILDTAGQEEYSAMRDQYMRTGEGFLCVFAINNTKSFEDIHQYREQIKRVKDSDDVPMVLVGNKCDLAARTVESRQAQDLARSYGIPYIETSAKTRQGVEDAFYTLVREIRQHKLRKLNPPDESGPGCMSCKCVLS
GDP-bound NRAS wild-type protein, sequence (P01111 whole entry): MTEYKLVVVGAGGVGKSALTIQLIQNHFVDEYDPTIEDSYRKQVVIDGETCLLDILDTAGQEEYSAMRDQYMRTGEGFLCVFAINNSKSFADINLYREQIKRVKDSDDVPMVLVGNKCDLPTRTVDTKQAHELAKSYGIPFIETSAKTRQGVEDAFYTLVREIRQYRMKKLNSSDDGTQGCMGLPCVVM

Compound	Kd ([1]; 1:1 binding model) [nM]	NRAS /KRAS [2, 4]	HRAS /KRAS (HRAS wild-type protein; [5])	IC50 ([3]; NCI-H441 cells, 4 days) [nM]	Kd ([1]; Single Cycle Kinetics) [nM]	Kd [1, 6] [nM]	NRAS /KRAS [2, 7]	HRAS /KRAS (HRAS wild-type protein; [8])	IC50 [3, 9] [nM]
CCCOC[C@H]1C(=O)N[C@@H]([C@@H](C)CC)C(=O)N(C2CC2)CC(=O)N(C)[C@H]2C/C=C\CCN(C2=O)[C@@H](CC2CCC(F)(F)CC2)C(=O)N(C)CC(=O)N[C@@H](CCc2ccc(C(F)(F)F)c(OC)c2)C(=O)N2C[C@@H](C)C[C@H]2C(=O)N(C)C2(CCC2)C(=O)N(C)[C@@H](C2CCCC2)C(=O)N(C)[C@H](C(=O)N(C)C)CC(=O)N1C [PP2379]	0.76	A (a compound having 10 or more and less than 20 is denoted as A)	A (a compound having 10 or more and less than 20 is denoted as A)	2.2					
CCCN1CC(=O)N(C)[C@H]2C/C=C\CCN(C2=O)[C@@H](Cc2ccc(C(F)F)cc2)C(=O)N(C)CC(=O)N[C@@H](CCc2cc(F)c(C(F)(F)F)c(F)c2)C(=O)N2C[C@H](OC(C)C)C[C@H]2C(=O)N(C)C2(CCC2)C(=O)N(C)[C@@H](C(CC)CC)C(=O)N(C)[C@H](C(=O)N(C)C)CC(=O)N(C)[C@@H](COCC)C(=O)N[C@@H](C2CCCC2)C1=O [PP3498]		A (a compound having 10 or more and less than 20 is denoted as A)	A (a compound having 10 or more and less than 20 is denoted as A)	24.7	0.94				
CCO[C@@H]1C[C@H]2C(=O)NC3(CCCC3)C(=O)N(C)[C@@H](C3CCCC3)C(=O)N(C)[C@H](C(=O)N(C)C)CC(=O)N(C)[C@@H](CC)C(=O)N[C@@H]([C@@H](C)CC)C(=O)N(C)CC(=O)N(C)[C@H]3C/C=C\CCN(C3=O)[C@@H](Cc3ccc(C(F)(F)F)cc3)C(=O)N(C)CC(=O)N[C@@H](CCc3cc(F)c(C(F)(F)F)c(F)c3)C(=O)N2C1 [PP1276]						0.066	A (a compound having 10 or more and less than 20 is denoted as A)	B (a compound having 3 or more and less than 10 is denoted as B)	20.8
C#CC[C@H]1C(=O)N[C@@H]([C@@H](C)CC)C(=O)N(C)CC(=O)N(C)[C@H]2C/C=C\CCN(C2=O)[C@@H](Cc2ccc(C)cc2)C(=O)N(C)CC(=O)N[C@@H](CCc2ccc(C(F)(F)F)c(OC)c2)C(=O)N2C[C@H](OCC)C[C@H]2C(=O)OC2(CCC2)C(=O)N(C)[C@@H](C2CCCC2)C(=O)N(C)[C@H](C(=O)N(C)C)CC(=O)N1C [PP3391]		B (a compound having 3 or more and less than 10 is denoted as B)	B (a compound having 3 or more and less than 10 is denoted as B)	9.8	0.46				
CCC[C@H]1C(=O)N[C@@H]([C@@H](C)CC)C(=O)N2CCC[C@H]2C(=O)N(C)[C@H]2C/C(F)=C\CCN(C2=O)[C@@H](Cc2ccc(C)cc2)C(=O)N(C)CC(=O)N[C@@H](CCc2ccc(C(F)(F)F)c(OC)c2)C(=O)N2C[C@H](OCC)C[C@H]2C(=O)N(C)C2(CCC2)C(=O)N(C)[C@@H](C2CCCC2)C(=O)N(C)[C@H](C(=O)N(C)C)CC(=O)N1C [PP3524]		B (a compound having 3 or more and less than 10 is denoted as B)	B (a compound having 3 or more and less than 10 is denoted as B)	6.9	0.24				
CCC[C@H]1C(=O)N[C@@H](C2CCCC2)C(=O)N(C)CC(=O)N(C)[C@H]2C/C=C\CCN(C2=O)[C@@H](Cc2ccc(C)cc2)C(=O)N(C)CC(=O)N[C@@H](CCc2ccc(C(F)(F)F)c(Cl)c2)C(=O)N2CC3(CC3)C[C@H]2C(=O)N(C)C2(CCC2)C(=O)N(C)[C@@H](C2CCCC2)C(=O)N(C)[C@H](C(=O)N(C)C)CC(=O)N1C [PP3322]		A (a compound having 10 or more and less than 20 is denoted as A)	B (a compound having 3 or more and less than 10 is denoted as B)	7.9	0.063				
CCOC[C@H]1C(=O)N[C@@H]([C@@H](C)CC)C(=O)N(C)CC(=O)N(C)[C@H]2C/C=C\CCN(C2=O)[C@@H](CC2CCCCC2)C(=O)N(C)CC(=O)N[C@@H](CCc2cc(F)c(C(F)(F)F)c(F)c2)C(=O)N2C[C@H](OCC)C[C@H]2C(=O)NC2(CC(C)(C)C2)C(=O)N(C)[C@@H](C(CC)CC)C(=O)N(C)[C@H](C(=O)N(C)C)CC(=O)N1C [PP2479]	1.4	AA (a compound having 20 or more is denoted as AA)	A (a compound having 10 or more and less than 20 is denoted as A)	26					
CCO[C@@H]1C[C@H]2C(=O)NC3(CCC3)C(=O)N(C)[C@@H](C3CCCC3)C(=O)N(C)[C@H](C(=O)N3CCOCC3)CC(=O)N(C)[C@@H](CC3CC3)C(=O)N[C@@H]([C@@H](C)CC)C(=O)N(C)CC(=O)N(C)[C@H]3CCCCCN(C3=O)[C@@H](Cc3ccc(F)cc3)C(=O)N(C)CC(=O)N[C@@H](CCc3cc(F)c(C(F)(F)F)c(F)c3)C(=O)N2C1 [PP1178]						0.16	B (a compound having 3 or more and less than 10 is denoted as B)	B (a compound having 3 or more and less than 10 is denoted as B)	26.3
CCC[C@H]1C(=O)N[C@@H](C2CCCC2)C(=O)N(C)CC(=O)N(C)[C@H]2C/C=C\CCN(C2=O)[C@@H](Cc2ccc(C(F)(F)F)cc2)C(=O)N(C)CC(=O)N[C@@H](CCc2ccc(C(F)(F)F)c(OC)c2)C(=O)N2CC3(CC3)C[C@H]2C(=O)N(C)C2(CCC2)C(=O)N(C)[C@@H]([C@@H](C)CC)C(=O)N(C)[C@H](C(=O)N(C)C)CC(=O)N1C [PP3315]		A (a compound having 10 or more and less than 20 is denoted as A)	A (a compound having 10 or more and less than 20 is denoted as A)	7.2	0.92				
CCC[C@H]1C(=O)N[C@@H]([C@@H](C)CC)C(=O)N(C2CC2)CC(=O)N(C)[C@H]2C/C=C\CCN(C2=O)[C@@H](Cc2ccc(C)cc2)C(=O)N(C)CC(=O)N[C@@H](CCc2cc(F)c(C(F)(F)F)c(F)c2)C(=O)N2C[C@H](OC3CCC3)C[C@H]2C(=O)NC2(CC(C)(C)C2)C(=O)N(C)[C@@H](C2CCCC2)C(=O)N(C)[C@H](C(=O)N(C)C)CC(=O)N1C [PP2614]	0.27	A (a compound having 10 or more and less than 20 is denoted as A)	A (a compound having 10 or more and less than 20 is denoted as A)	12.1					
CCC[C@H]1C(=O)N[C@@H]([C@@H](C)CC)C(=O)N(C)CC(=O)N(C)[C@H]2C/C=C\CCN(C2=O)[C@@H](Cc2ccc(C(F)(F)F)cc2)C(=O)N(C)CC(=O)N[C@@H](CCc2ccc(C(F)(F)F)c(Cl)c2)C(=O)N2CC3(CC3)C[C@H]2C(=O)NC2(CCC2)C(=O)N(C)[C@@H](CC(C)(C)C)C(=O)N(C)[C@H](C(=O)N(C)C)CC(=O)N1C [PP3418]		A (a compound having 10 or more and less than 20 is denoted as A)	B (a compound having 3 or more and less than 10 is denoted as B)	5.4	0.041				
CCOC[C@H]1C(=O)N[C@@H]([C@@H](C)CC)C(=O)N(C)CC(=O)N(C)[C@H]2C/C=C\CCN(C2=O)[C@@H](Cc2ccc(C)cc2)C(=O)N(C)CC(=O)N[C@@H](CCc2ccc(C(F)(F)F)c(OC)c2)C(=O)N2C[C@H](OCC)C[C@H]2C(=O)NC2(CC(C)(C)C2)C(=O)N(C)[C@@H](C2CCCC2)C(=O)N(C)[C@H](C(=O)N(C)CC)CC(=O)N1C [PP2445]	0.14	A (a compound having 10 or more and less than 20 is denoted as A)	B (a compound having 3 or more and less than 10 is denoted as B)	11.7					
CCC[C@H]1C(=O)N[C@@H]([C@@H](C)CC)C(=O)N(C)CC(=O)N(C)[C@H]2C/C=C\CCN(C2=O)[C@@H](Cc2ccc(C)cc2)C(=O)N(C)CC(=O)N[C@@H](CCc2ccc(C(F)(F)F)c(OC)c2)C(=O)N2CC3(CC3)C[C@H]2C(=O)NC2(CCC2)C(=O)N(C)[C@@H](C(CC)CC)C(=O)N(C)[C@H](C(=O)N(C)C)CC(=O)N1C [PP3422]		AA (a compound having 20 or more is denoted as AA)	A (a compound having 10 or more and less than 20 is denoted as A)	8.4	0.39				
CCO[C@@H]1C[C@H]2C(=O)NC3(CCC3)C(=O)N(C)[C@@H](C3CCCC3)C(=O)N(C)[C@H](C(=O)N(C)C)CC(=O)N(C)[C@@H](COC3CC3)C(=O)N[C@@H]([C@@H](C)CC)C(=O)N(C)CC(=O)N(C)[C@H]3C/C=C\CCN(C3=O)[C@@H](Cc3ccc(C(F)(F)F)cc3)C(=O)N(C)CC(=O)N[C@@H](CCc3cc(F)c(C(F)(F)F)c(F)c3)C(=O)N2C1 [PP1268]						0.045	A (a compound having 10 or more and less than 20 is denoted as A)	A (a compound having 10 or more and less than 20 is denoted as A)	12.1
C=C(C)C[C@H]1C(=O)N(C)[C@H](C(=O)N(C)C)CC(=O)N(C)[C@@H](CCC)C(=O)N[C@@H]([C@@H](C)CC)C(=O)N(C)CC(=O)N(C)[C@H]2C/C=C\CCN(C2=O)[C@@H](Cc2ccc(C(F)(F)F)cc2)C(=O)N(C)CC(=O)N[C@@H](CCc2ccc(C(F)(F)F)c(OC)c2)C(=O)N2C[C@H](OCC)C[C@H]2C(=O)N(C)C2(CCC2)C(=O)N1C [PP3332]		A (a compound having 10 or more and less than 20 is denoted as A)	B (a compound having 3 or more and less than 10 is denoted as B)	29.3	0.86				
